{"source": "paper PMC6414200", "about": "“Stepwise activation mechanism of the scramblase nhTMEM16 revealed by cryo-EM” (eLife, 2019)", "target": "T1, nhTMEM16 (Fusarium vanettenii, UniProt C7Z7K1)", "T1 construct": "gene NECHADRAFT_66456; full open reading frame, N-terminal SBP-Myc-3C tag kept for scrambling assay; expressed in S. cerevisiae FGY217, purified in DDM, reconstituted into liposomes; homodimer", "T1 sequence (C7Z7K1 1-735)": "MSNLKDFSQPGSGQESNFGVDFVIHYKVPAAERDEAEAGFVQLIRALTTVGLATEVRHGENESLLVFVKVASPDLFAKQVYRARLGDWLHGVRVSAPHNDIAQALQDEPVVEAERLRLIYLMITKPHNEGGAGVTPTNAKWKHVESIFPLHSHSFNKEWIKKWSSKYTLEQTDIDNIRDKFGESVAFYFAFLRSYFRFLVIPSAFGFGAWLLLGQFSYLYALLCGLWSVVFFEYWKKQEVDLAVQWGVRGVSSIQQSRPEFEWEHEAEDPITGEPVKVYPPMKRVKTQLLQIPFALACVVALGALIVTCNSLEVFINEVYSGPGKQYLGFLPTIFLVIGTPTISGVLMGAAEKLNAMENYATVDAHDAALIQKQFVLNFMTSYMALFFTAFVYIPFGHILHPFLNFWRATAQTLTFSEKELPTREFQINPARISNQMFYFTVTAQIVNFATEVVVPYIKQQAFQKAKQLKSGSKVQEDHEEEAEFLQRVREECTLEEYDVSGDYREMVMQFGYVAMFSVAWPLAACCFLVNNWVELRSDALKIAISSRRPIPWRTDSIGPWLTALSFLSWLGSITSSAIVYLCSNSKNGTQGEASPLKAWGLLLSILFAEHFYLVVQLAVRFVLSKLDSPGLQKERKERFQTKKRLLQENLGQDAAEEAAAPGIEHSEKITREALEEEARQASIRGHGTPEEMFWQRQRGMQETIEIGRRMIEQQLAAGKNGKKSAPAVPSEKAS", "experiment": "proteoliposome scrambling assay, dithionite quenching of NBD fluorescence", "assay_type": "biochemical", "conditions": "Ca2+-stimulated with basal activity without Ca2+; E. coli polar lipids/egg PC 3:1, pH 7.5, 300 mM KCl; labelled compound; lipid transport (flip-flop)"}
{"smiles": "CCCCCCCC/C=C\\CCCCCCCC(=O)OC[C@H](COP(=O)(O)OCCN)OC(=O)CCCCCNc1ccc([N+](=O)[O-])c2nonc12", "note": "[18:1-06:0 NBD-PE]", "values": [{"measurement": "proteoliposome scrambling assay, dithionite quenching of NBD fluorescence", "value": "Traces depict sections of the fluorescence decrease of tail-labeled NBD-PE lipids after addition of dithionite"}]}
